EC50 data for 18 molecules are collected here from patent US12129312B2, “Peptide compound, application thereof and composition containing same” (priority 2017, dated 2024).

Read-outs that look alike come from different tables or passages of the source. Numbered stars: 1 amine (or outer) side, 2 acyl side, 3 side chain; on linkers, the order of the positions; unused ones are H or OH. Square brackets hold non-standard residues; d marks the D form. Peptide text beside a SMILES is read from it. * marks the point of attachment. Pro(4,4-F2) = O=C(O)[C@@H]1CC(F)(F)CN1; X4 = O=C([C@@H]1Cc2ccsc2CN1[*:1])[*:2]; X5 = O=C([C@H]1c2ccccc2CCN1[*:1])[*:2]; 1Nal = N[C@@H](Cc1cccc2ccccc12)C(=O)O; 2Nal = N[C@@H](Cc1ccc2ccccc2c1)C(=O)O; Tiq1c(1S) = O=C(O)[C@H]1NCCc2ccccc21; dNMeY = CN[C@H](Cc1ccc(O)cc1)C(=O)O; Hydrocinnamoyl = O=C(CCc1ccccc1)*; Tic = O=C(O)[C@@H]1Cc2ccccc2CN1; dTic = O=C(O)[C@H]1Cc2ccccc2CN1; Gly(N-CH2CH2OH) = O=C(O)CNCCO; NMeL = CN[C@@H](CC(C)C)C(=O)O; NMeS = CN[C@@H](CO)C(=O)O; hSer = N[C@@H](CCO)C(=O)O; Thz = O=C(O)[C@@H]1CSCN1

The target in this assay is T1, human Chemokine like receptor 1 (Homo sapiens, UniProt Q99788).
T1 construct: host or cells: U2OS (Tango CMKLR1-bla U2OS)
T1 sequence (Q99788 1-373): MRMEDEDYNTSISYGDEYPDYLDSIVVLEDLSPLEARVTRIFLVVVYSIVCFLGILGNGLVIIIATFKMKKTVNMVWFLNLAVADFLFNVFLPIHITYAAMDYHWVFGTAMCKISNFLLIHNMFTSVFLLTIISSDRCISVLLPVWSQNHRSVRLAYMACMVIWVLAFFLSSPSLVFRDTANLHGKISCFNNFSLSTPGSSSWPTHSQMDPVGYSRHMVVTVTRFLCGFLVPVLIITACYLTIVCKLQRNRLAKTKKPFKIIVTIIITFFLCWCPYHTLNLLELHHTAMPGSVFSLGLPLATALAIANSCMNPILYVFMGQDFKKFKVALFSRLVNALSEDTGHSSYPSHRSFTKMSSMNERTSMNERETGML
The assay can be described thus: Activation of Tango CMKLR1-bla U2OS cells (beta-lactamase FRET reporter). In kind it is cell-based. A digest of the protocol:
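Agonist mode in Tango CMKLR1-bla U2OS cells, 10000 cells/well seeded overnight, then 10-point 3-fold compound dilutions from 10 mM DMSO stock applied for 4 h at 37 °C, 5% CO2. Beta-lactamase reporter read with CCF4-AM FRET substrate; peptide (D-Tyr)-Phe-Leu-Pro-(D-Ser)-Gln-Phe-(D-Ala)-Tic-Ser served as positive control.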

Where [1] appears, read: determination by the method of Effect Embodiment 1, read-out: EC50.

As a reminder, the EC50 is the midpoint of the concentration-response curve. For the molecule `CN[C@H](Cc1ccc(O)cc1)C(=O)N[C@@H](Cc1ccccc1)C(=O)N(C)[C@@H](CC(C)C)C(=O)N1CSC[C@H]1C(=O)N[C@H](CO)C(=O)N[C@@H](CCC(N)=O)C(=O)N[C@@H](Cc1ccc2ccccc2c1)C(=O)N[C@H](C)C(=O)N1Cc2ccccc2C[C@H]1C(=O)N[C@@H](CO)C(=O)O` [YW-148, (D-NMe-Tyr)-Phe-(NMe-Leu)-Thz-(D-Ser)-Gln-2Nal-(D-Ala)-Tic-Ser-OH] (H-[dNMeY]F[NMeL][Thz][dS]Q[2Nal][dA][Tic]S-OH), the EC50 under setting [1] came to 0.5 nM.
On to `CC(C)C[C@H](NC(=O)[C@H](Cc1ccccc1)NC(=O)[C@H](N)Cc1ccc(O)cc1)C(=O)N1CCC[C@H]1C(=O)N[C@H](CO)C(=O)N[C@@H](CCC(N)=O)C(=O)N[C@@H](Cc1ccccc1)C(=O)N[C@H](C)C(=O)N1Cc2ccccc2C[C@@H]1C(=O)N[C@@H](CO)C(=O)O` [YW-149, (D-Tyr)-Phe-Leu-Pro-(D-Ser)-Gln-Phe-(D-Ala)-D-Tic-Ser-OH] (H-[dY]FLP[dS]QF[dA][dTic]S-OH), for which the EC50 under setting [1] was determined as 21 nM.
Still for that read-out and setting: next, `CC(C)C[C@H](NC(=O)[C@H](Cc1ccccc1)NC(=O)[C@H](N)Cc1ccc(O)cc1)C(=O)N1CCC[C@H]1C(=O)N[C@H](CO)C(=O)N[C@@H](CCC(N)=O)C(=O)N[C@@H](Cc1ccccc1)C(=O)N[C@H](C)C(=O)N1CCc2ccccc2[C@H]1C(=O)N[C@@H](CO)C(=O)O` [YW-150, (D-Tyr)-Phe-Leu-Pro-(D-Ser)-Gln-Phe-(D-Ala)-Ti1c-Ser-OH] (H-[dY]FLP[dS]QF[dA][Tiq1c(1S)]S-OH): 62 nM.
As for `CC(C)C[C@H](NC(=O)[C@H](Cc1ccccc1)NC(=O)[C@H](N)Cc1ccc(O)cc1)C(=O)N1CCC[C@H]1C(=O)N[C@H](CO)C(=O)N[C@@H](CCC(N)=O)C(=O)N[C@@H](Cc1ccccc1)C(=O)N[C@H](C)C(=O)N1CCc2ccccc2[C@@H]1C(=O)N[C@@H](CO)C(=O)O` [YW-151, (D-Tyr)-Phe-Leu-Pro-(D-Ser)-Gln-Phe-(D-Ala)-D-Ti1c-Ser-OH] (H-[dY]FLP[dS]QF[dA][X5]S-OH), the EC50 under setting [1] was 27 nM.
Still for that read-out and setting: next, `CC(C)C[C@@H](C(=O)N1CCC[C@H]1C(=O)N[C@H](CO)C(=O)N[C@@H](CCC(N)=O)C(=O)N[C@@H](Cc1ccccc1)C(=O)N[C@H](C)C(=O)N1CCc2ccccc2[C@@H]1C(=O)N[C@@H](CO)C(=O)O)N(C)C(=O)[C@H](Cc1ccccc1)NC(=O)[C@H](N)Cc1ccc(O)cc1` [YW-153, (D-Tyr)-Phe-(NMe-Leu)-Pro-(D-Ser)-Gln-Phe-(D-Ala)-D-Ti1c-Ser-OH] (H-[dY]F[NMeL]P[dS]QF[dA][X5]S-OH): 8.5 nM; `CN[C@H](Cc1ccc(O)cc1)C(=O)N[C@@H](Cc1ccccc1)C(=O)N[C@@H](CC(C)C)C(=O)N1CCC[C@H]1C(=O)N[C@H](CO)C(=O)N[C@@H](CCC(N)=O)C(=O)N[C@@H](Cc1ccccc1)C(=O)N[C@H](C)C(=O)N1CCc2ccccc2[C@@H]1C(=O)N[C@@H](CO)C(=O)O` [YW-154, (D-NMe-Tyr)-Phe-Leu-Pro-(D-Ser)-Gln-Phe-(D-Ala)-D-Ti1c-Ser-OH] (H-[dNMeY]FLP[dS]QF[dA][X5]S-OH): 34 nM.
The same measure, in the same setting: next, `CC(C)C[C@H](NC(=O)[C@H](Cc1ccccc1)NC(=O)[C@H](N)Cc1ccc(O)cc1)C(=O)N1CCC[C@H]1C(=O)N[C@H](CO)C(=O)N[C@@H](CCC(N)=O)C(=O)N[C@@H](Cc1ccccc1)C(=O)N[C@H](C)C(=O)N1Cc2sccc2C[C@H]1C(=O)N[C@@H](CO)C(=O)O` [YW-158, (D-Tyr)-Phe-Leu-Pro-(D-Ser)-Gln-Phe-(D-Ala)-TP5C-Ser-OH] (H-[dY]FLP[dS]QF[dA][X4]S-OH; N-terminus assumed): 65 nM; `CC(C)C[C@@H](C(=O)N1CCC[C@H]1C(=O)N[C@H](CO)C(=O)N[C@@H](CCC(N)=O)C(=O)N[C@@H](Cc1ccccc1)C(=O)N[C@H](C)C(=O)N1Cc2ccccc2C[C@H]1C(=O)N[C@@H](CO)C(N)=O)N(C)C(=O)[C@H](Cc1ccccc1)NC(=O)[C@@H](Cc1ccc(O)cc1)NC(=O)CCc1ccccc1` [YW-161, 3-phenylpropanoyl-(D-Tyr)-Phe-(NMe-Leu)-Pro-(D-Ser)-Gln-Phe-(D-Ala)-Tic-Ser-NH2] (Hydrocinnamoyl-[dY]F[NMeL]P[dS]QF[dA][Tic]S-NH2): 3 nM.
On the same count and under the same terms, next, `CN[C@H](Cc1ccc(O)cc1)C(=O)N[C@@H](Cc1ccccc1)C(=O)N(C)[C@@H](CC(C)C)C(=O)N1CCC[C@H]1C(=O)N[C@H](CO)C(=O)N[C@@H](CCC(N)=O)C(=O)N[C@@H](Cc1cccc2ccccc12)C(=O)N[C@H](C)C(=O)N1Cc2ccccc2C[C@H]1C(=O)N(C)[C@@H](CO)C(=O)O` [YW-162, (D-NMe-Tyr)-Phe-(NMe-Leu)-Pro-(D-Ser)-Gln-1Nal-(D-Ala)-Tic-NMeSer-OH] (H-[dNMeY]F[NMeL]P[dS]Q[1Nal][dA][Tic][NMeS]-OH): 2.6 nM.
On to `CN[C@H](Cc1ccc(O)cc1)C(=O)N[C@@H](Cc1ccccc1)C(=O)N(C)[C@@H](CC(C)C)C(=O)N1CCC[C@H]1C(=O)N[C@H](CO)C(=O)N[C@@H](CCC(N)=O)C(=O)N[C@@H](Cc1ccccc1)C(=O)N[C@H](C)C(=O)N1Cc2ccccc2C[C@H]1C(=O)N[C@@H](CO)C(=O)O` [YW-163, (D-NMe-Tyr)-Phe-(NMe-Leu)-Pro-(D-Ser)-Gln-Phe-(D-Ala)-Tic-Ser-OH] (H-[dNMeY]F[NMeL]P[dS]QF[dA][Tic]S-OH), for which the EC50 under setting [1] is 2.2 nM.
For the molecule `CC(C)C[C@@H](C(=O)N1CCC[C@H]1C(=O)N[C@H](CO)C(=O)N[C@@H](CCC(N)=O)C(=O)N[C@@H](Cc1ccc2ccccc2c1)C(=O)N[C@H](C)C(=O)N1Cc2ccccc2C[C@H]1C(=O)N[C@@H](CO)C(=O)O)N(C)C(=O)[C@H](Cc1ccccc1)NC(=O)[C@H](N)Cc1ccc(O)cc1` [YW-164, (D-Tyr)-Phe-(NMe-Leu)-Pro-(D-Ser)-Gln-2Nal-(D-Ala)-Tic-Ser-OH] (H-[dY]F[NMeL]P[dS]Q[2Nal][dA][Tic]S-OH), a half-maximal response (EC50) required 1.1 nM.
For `CC(C)C[C@@H](C(=O)N1CCC[C@H]1C(=O)N[C@H](CO)C(=O)N[C@@H](CCC(N)=O)C(=O)N[C@@H](Cc1cccc2ccccc12)C(=O)N[C@H](C)C(=O)N1Cc2ccccc2C[C@H]1C(=O)N[C@@H](CO)C(=O)O)N(C)C(=O)[C@H](Cc1ccccc1)NC(=O)[C@H](N)Cc1ccc(O)cc1` [YW-165, (D-Tyr)-Phe-(NMe-Leu)-Pro-(D-Ser)-Gln-1Nal-(D-Ala)-Tic-Ser-OH] (H-[dY]F[NMeL]P[dS]Q[1Nal][dA][Tic]S-OH), the EC50 was determined as 1.5 nM.
As for `CC(C)C[C@@H](C(=O)N1CCC[C@H]1C(=O)N[C@H](CO)C(=O)N[C@@H](CCC(N)=O)C(=O)N[C@@H](Cc1ccccc1)C(=O)N[C@H](C)C(=O)N1Cc2ccccc2C[C@H]1C(=O)N(C)[C@@H](CO)C(=O)O)N(C)C(=O)[C@H](Cc1ccccc1)NC(=O)[C@H](N)Cc1ccc(O)cc1` [YW-166, (D-Tyr)-Phe-(NMe-Leu)-Pro-(D-Ser)-Gln-Phe-(D-Ala)-Tic-(NMe-Ser)-OH] (H-[dY]F[NMeL]P[dS]QF[dA][Tic][NMeS]-OH), the EC50 under setting [1] turned out to be 5 nM.
As to `CN[C@H](Cc1ccc(O)cc1)C(=O)N[C@@H](Cc1ccccc1)C(=O)N(C)[C@@H](CC(C)C)C(=O)N1CCC[C@H]1C(=O)N[C@H](CO)C(=O)N[C@@H](CCC(N)=O)C(=O)N[C@@H](Cc1ccc2ccccc2c1)C(=O)N[C@H](C)C(=O)N1Cc2ccccc2C[C@H]1C(=O)N[C@@H](CO)C(=O)O` [YW-167, (D-NMe-Tyr)-Phe-(NMe-Leu)-Pro-(D-Ser)-Gln-2Nal-(D-Ala)-Tic-Ser-OH] (H-[dNMeY]F[NMeL]P[dS]Q[2Nal][dA][Tic]S-OH), the EC50 under setting [1] stood at 0.8 nM.
Regarding `CN[C@H](Cc1ccc(O)cc1)C(=O)N[C@@H](Cc1ccccc1)C(=O)N(C)[C@@H](CC(C)C)C(=O)N1CCC[C@H]1C(=O)N[C@H](CO)C(=O)N[C@@H](CCC(N)=O)C(=O)N[C@@H](Cc1cccc2ccccc12)C(=O)N[C@H](C)C(=O)N1Cc2ccccc2C[C@H]1C(=O)N[C@@H](CO)C(=O)O` [YW-168, (D-NMe-Tyr)-Phe-(NMe-Leu)-Pro-(D-Ser)-Gln-1Nal-(D-Ala)-Tic-Ser-OH] (H-[dNMeY]F[NMeL]P[dS]Q[1Nal][dA][Tic]S-OH), the EC50 under setting [1] stood at 1.2 nM.
The same measure, in the same setting: under `CC(C)C[C@@H](C(=O)N1CCC[C@H]1C(=O)N[C@H](CO)C(=O)N[C@@H](CCC(N)=O)C(=O)N[C@@H](Cc1ccccc1)C(=O)N[C@H](C)C(=O)N1Cc2ccccc2C[C@H]1C(=O)N[C@@H](CCO)C(=O)O)N(C)C(=O)[C@H](Cc1ccccc1)NC(=O)[C@H](N)Cc1ccc(O)cc1` [YW-171, (D-Tyr)-Phe-(NMe-Leu)-Pro-(D-Ser)-Gln-Phe-(D-Ala)-Tic-HoSer-OH] (H-[dY]F[NMeL]P[dS]QF[dA][Tic][hSer]-OH) stands 29 nM; under `CC(C)C[C@@H](C(=O)N1CCC[C@H]1C(=O)N[C@H](CO)C(=O)N[C@@H](CCC(N)=O)C(=O)N[C@@H](Cc1ccccc1)C(=O)N[C@H](C)C(=O)N1Cc2ccccc2C[C@H]1C(=O)N(CCO)CC(=O)O)N(C)C(=O)[C@H](Cc1ccccc1)NC(=O)[C@H](N)Cc1ccc(O)cc1` [YW-172, (D-Tyr)-Phe-(NMe-Leu)-Pro-(D-Ser)-Gln-Phe-(D-Ala)-Tic-NHoSer-OH] (H-[dY]F[NMeL]P[dS]QF[dA][Tic][Gly(N-CH2CH2OH)]-OH), 5.8 nM.
Turning to `CC(C)C[C@@H](C(=O)N1CC(F)(F)C[C@H]1C(=O)N[C@H](CO)C(=O)N[C@@H](CCC(N)=O)C(=O)N[C@@H](Cc1ccccc1)C(=O)N[C@H](C)C(=O)N1Cc2ccccc2C[C@H]1C(=O)N[C@@H](CO)C(=O)O)N(C)C(=O)[C@H](Cc1ccccc1)NC(=O)[C@H](N)Cc1ccc(O)cc1` [YW-174, (D-Tyr)-Phe-(NMe-Leu)-Pro(diF)-(D-Ser)-Gln-Phe-(D-Ala)-Tic-Ser-OH] (H-[dY]F[NMeL][Pro(4,4-F2)][dS]QF[dA][Tic]S-OH), under setting [1], the EC50 came to 1.2 nM.
